Common to all, as to assay type: cell-based
Test [1] concerns the target T1, THR alpha (Homo sapiens, UniProt P10827).
T1 construct: expressed in transfected cells; host or cells: HEK293T (ATCC CRL-3216)
T1 sequence (P10827 1-410 isoform P10827-2): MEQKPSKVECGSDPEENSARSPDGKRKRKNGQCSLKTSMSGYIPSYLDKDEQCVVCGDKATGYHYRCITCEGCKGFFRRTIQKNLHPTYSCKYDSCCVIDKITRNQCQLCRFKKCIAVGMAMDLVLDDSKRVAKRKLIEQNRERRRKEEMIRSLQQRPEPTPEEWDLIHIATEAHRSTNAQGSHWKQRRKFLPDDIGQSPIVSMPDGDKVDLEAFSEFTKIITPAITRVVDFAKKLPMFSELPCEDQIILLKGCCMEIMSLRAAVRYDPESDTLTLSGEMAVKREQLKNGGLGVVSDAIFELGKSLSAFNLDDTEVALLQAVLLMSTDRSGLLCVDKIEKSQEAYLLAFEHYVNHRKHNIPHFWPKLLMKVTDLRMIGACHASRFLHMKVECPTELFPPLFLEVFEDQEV
T1 sequence (P19793 1-462 partner): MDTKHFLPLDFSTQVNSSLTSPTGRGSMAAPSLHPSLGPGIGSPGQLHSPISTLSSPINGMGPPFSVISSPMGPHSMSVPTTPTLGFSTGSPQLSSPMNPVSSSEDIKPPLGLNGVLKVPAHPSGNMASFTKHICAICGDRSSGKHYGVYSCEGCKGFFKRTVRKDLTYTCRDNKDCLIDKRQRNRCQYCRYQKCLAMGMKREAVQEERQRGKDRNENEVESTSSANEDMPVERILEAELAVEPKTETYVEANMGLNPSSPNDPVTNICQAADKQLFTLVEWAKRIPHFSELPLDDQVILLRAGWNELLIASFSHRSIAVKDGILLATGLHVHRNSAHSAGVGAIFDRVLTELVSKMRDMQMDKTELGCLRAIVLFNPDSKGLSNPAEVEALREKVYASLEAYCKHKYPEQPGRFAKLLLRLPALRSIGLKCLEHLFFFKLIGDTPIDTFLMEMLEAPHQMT
The test can be described thus: HEK293T THR alpha/RXR luciferase reporter assay (Assay 2). The settings on record: for Emax: HEK-293T. The procedure, abridged:
(§1)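 HEK293T cells transiently transfected with TRE-luciferase reporter, RXR, and THR alpha or THR beta plasmid; ten five-fold compound dilutions from DMSO added for 18-24 h. One-Glo luminescence read; percent agonism normalized between negative and positive controls.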
For orientation: In a reporter assay the amount or activity of a reporter protein is the signal.

Test [2] deals with CPT1A gene expression in Huh-7 cells. The test can be described thus: Huh-7 differential gene expression, CPT1A RT-qPCR (Assay 3). The note with it: Homo sapiens, Huh-7, 24 h, Table 6, Huh-7 cells, CPT1A, 24 hr treatment; for EC50: read-out: Activity category Assay 3 EC50; for Emax: read-out: Activity category Assay 3 Emax. Here is the method: Huh-7 Differential Gene Expression (Assay 3)
Fetal bovine serum (FBS) was incubated with washed resin (50 mg resin/mL FBS; resin weight is dry weight of resin prior to washing) for 5 hr at room temperature on a rotor. The FBS was separated from the resin via centrifugation and incubated with new, washed resin for 18 h at room temperature on a rotor.
Cell Culture and Drug Treatment
Huh-7 cells were cultured in DMEM (10-013-CM, Corning) supplemented with 10% FBS and 1% Pen-Strep at 37° C. under 5% C02. When 70-80% confluence was reached, the cells were removed by trypsinization. The medium was aspirated from the cell culture dish, the cell monolayer was washed with 1×PBS, and 0.05% trypsin, 0.53 mM EDTA (25-052-CV, Corning) solution was added to the dish. After 3 min incubation, the cells were detached completely by repeatedly pipetting solution onto the monolayer. Equal volume of DMEM supplemented with 10% rFBS and 1% Pen-Strep (TH-depleted DMEM) was added to the dish to inactivate the trypsin. The cell suspension was centrifuged at 350×g at room temperature for 3 min. The supernatant was aspirated out and the cell pellet was resuspended in TH-depleted DMEM. […] After 24 hr incubation, the media was replaced with treatment media. All compounds were serially diluted in DMSO and final concentrations were reached by dilution in TH-depleted DMEM (0.1% DMSO). The cells were incubated in treatment media for 24 hr. Treatments were performed in biological duplicates.
After 24 hr in treatment media, the cells were lysed directly on the culture plates and cDNA was produced using the TaqMan™ Fast Advanced Cells-to-CT™ Kit (A35374, Invitrogen) and following the manufacturer's protocol. RT-qPCR for CPT1A (Hs00912671_m1) and two housekeeping genes, ACTB (Hs01060665_g1) and TFG (Hs02832013_g1), was performed using TaqMan™ Fast Advanced Master Mix. RT-qPCR reactions were run on the qTOWER^3 84 G (Analytik Jena) in technical duplicates.
ΔRn values were obtained from the qPCRsoft384 1.0 software and CPT1A gene expression was quantified via the 2-ΔΔCt method. Dose-response curves were generated using GraphPad Prism 8 using four parameter logistic equation without top constraint to derive EC50 and Emax.
A general note: Quantitative PCR measures a nucleic acid by following its amplification.

Test [3] concerns the target T2, THR beta (Homo sapiens, UniProt P10828).
T2 construct: expressed in transfected cells; host or cells: HEK293T (ATCC CRL-3216)
T2 sequence (P10828 1-461): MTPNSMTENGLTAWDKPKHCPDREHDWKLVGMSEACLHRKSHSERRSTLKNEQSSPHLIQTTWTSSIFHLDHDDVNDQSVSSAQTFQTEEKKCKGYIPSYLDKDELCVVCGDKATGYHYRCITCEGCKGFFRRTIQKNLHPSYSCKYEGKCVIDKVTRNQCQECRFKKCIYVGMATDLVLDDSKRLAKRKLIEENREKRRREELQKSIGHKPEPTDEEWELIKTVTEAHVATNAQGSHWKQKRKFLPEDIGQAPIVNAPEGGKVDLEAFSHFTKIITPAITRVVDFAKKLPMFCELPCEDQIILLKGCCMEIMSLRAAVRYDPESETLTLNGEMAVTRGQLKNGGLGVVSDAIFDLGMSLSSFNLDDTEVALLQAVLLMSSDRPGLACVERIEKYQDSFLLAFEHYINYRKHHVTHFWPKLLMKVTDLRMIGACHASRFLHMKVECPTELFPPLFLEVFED
T2 sequence (P19793 1-462 partner): T1 sequence (P19793 1-462 partner)
The test can be described thus: HEK293T THR beta/RXR luciferase reporter assay (Assay 2). The note with it: for Emax: HEK-293T. An outline of the steps:
as §1

The mark [4] stands for this setting: Table 5, Assay 2, THRα, read-out: Activity category Assay 2 THRα (Emax).
The mark [5] stands for this setting: Table 4, THR-alpha, Assay 2, read-out: Activity category Assay 2 (EC50, THR-alpha agonist activity).
Setting [6] is: Table 5, Assay 2, THRβ, read-out: Activity category Assay 2 THRβ (Emax).
Where [7] appears, read: THR-beta, HEK293T reporter assay, read-out: Activity category Assay 2 (EC50, THR-beta agonist).

Read-outs that look alike come from different tables or passages of the source.

Usually EC50 stands for the concentration that produces a half-maximal response. As to `Nc1nn(-c2cc(Cl)c(Oc3cc(C4CCC4)c(=O)[nH]n3)c(Cl)c2)c(=O)[nH]c1=O` [Compound 40, 6-amino-2-[3,5-dichloro-4-[(5-cyclobutyl-6-oxo-1H-pyridazin-3-yl)oxy]phenyl]-4H-1,2,4-triazine-3,5-dione], the EC50 is 564 nM in test [1] (HEK293T reporter THRalpha/RXR, read-out: EC50 α); 250 to 1000 nM in test [1] (setting [5]); < 100 nM in test [2]; 58 nM in test [3] (HEK293T reporter THRbeta/RXR, read-out: EC50 β); 50 to 250 nM in test [3] (setting [7]). In addition, the Emax in test [1] (HEK293T reporter THRalpha/RXR, read-out: percent in parentheses below EC50 α (percent agonism / Emax)) was 95%; in test [1] (setting [4]), > 75%; in test [2], > 75%; in test [3] (HEK293T reporter THRbeta/RXR, read-out: percent in parentheses below EC50 β (percent agonism / Emax)), 92%; in test [3] (setting [6]), > 75%.
For the compound `CC(C)Nc1n[nH]c2ccc(Oc3c(Cl)cc(-n4nc(C#N)c(=O)[nH]c4=O)cc3Cl)cc12` [Compound 145, 2-(3,5-dichloro-4-((3-(isopropylamino)-1H-indazol-5-yl)oxy)phenyl)-3,5-dioxo-2,3,4,5-tetrahydro-1,2,4-triazine-6-carbonitrile], the Emax in test [1] (setting [4]) was 50 to 75%; in test [2], > 75%; in test [3] (setting [6]), 50 to 75%. The 50% effective concentration (EC50) in test [1] (setting [5]) was 1000 to 10000 nM; in test [2], 100 to 1000 nM; in test [3] (setting [7]), 1000 to 10000 nM.
For `CC(C)c1c[nH]c2ccc(Oc3c(Cl)cc(-n4nc(C#N)c(=O)[nH]c4=O)cc3Cl)nc12` [Compound 18], the Emax was 50 to 75% in test [1] (setting [4]), > 75% in test [2] and > 75% in test [3] (setting [6]). For the same compound, the results for the concentration giving a half-maximal response (EC50) in test [1] (setting [5]), in test [2] and in test [3] (setting [7]) were 1000 to 10000 nM, > 100 nM and 1000 to 10000 nM, respectively.
`Cc1cc(-n2nc(N)c(=O)[nH]c2=O)cc(C)c1Cc1ccc2c(c1)C1(CC1)C(=O)N2` [Compound 151, 6-Amino-2-(3,5-dimethyl-4-((2′-oxospiro[cyclopropane-1,3′-indolin]-5′-yl)methyl)phenyl)-1,2,4-triazine-3,5(2H,4H)-dione]: the Emax was 50 to 75% in test [1] (setting [4]), > 75% in test [2] and 50 to 75% in test [3] (setting [6]). Also, the EC50 was < 50 nM in test [1] (setting [5]), < 100 nM in test [2] and < 50 nM in test [3] (setting [7]).
As for `Nc1nn(-c2cc(Cl)c(Oc3n[nH]c(=O)cc3-c3ccc4c(c3)CCCC4)c(Cl)c2)c(=O)[nH]c1=O` [Compound 72-A, 6-amino-2-(3,5-dichloro-4-[[6-oxo-4-(5,6,7,8-tetrahydronaphthalen-2-yl)-1H-pyridazin-3-yl]oxy]phenyl)-4H-1,2,4-triazine-3,5-dione], the Emax in test [1] (setting [4]) is < 50%; in test [2], > 75%; in test [3] (setting [6]) it was 50 to 75%. Also, the half-maximal effective concentration (EC50) in test [1] (setting [5]) was > 10000 nM; in test [2], 100 to 1000 nM; in test [3] (setting [7]) it was 50 to 250 nM.
Take `CC(C)c1cc(=O)[nH]c2ccc(Oc3c(Cl)cc(-n4nc(N)c(=O)[nH]c4=O)cc3Cl)cc12` [Compound 146, 6-amino-2-[3,5-dichloro-4-[(4-isopropyl-2-oxo-1H-quinolin-6-yl)oxy]phenyl]-1,2,4-triazine-3,5-dione]: the Emax was < 50% in test [1] (setting [4]), > 75% in test [2] and 50 to 75% in test [3] (setting [6]). Moreover, the 50% effective concentration (EC50) in test [1] (setting [5]) is 50 to 250 nM; in test [2], 100 to 1000 nM; in test [3] (setting [7]) it was < 50 nM.
As to `Cc1cc(-n2ncc(=O)[nH]c2=O)cc(C)c1Cc1ccc2[nH]cc(C(C)C)c2n1` [Compound 54, 2-[4-[(3-isopropyl-1H-pyrrolo[3,2-b]pyridine-5-yl)methyl]-3,5-dimethyl-phenyl]-1,2,4-triazine-3,5-dione], the Emax was 50 to 75% in test [1] (setting [4]), > 75% in test [2] and > 75% in test [3] (setting [6]). For the same compound, the EC50 was < 50 nM in test [1] (setting [5]), < 100 nM in test [2] and < 50 nM in test [3] (setting [7]).
For the compound `CC(C)c1c[nH]c2ccc(Oc3c(Cl)cc(-n4nc(C#N)c(=O)[nH]c4=O)cc3Cl)cc12` [Compound 1, 2-[3,5-dichloro-4-[(3-isopropyl-1H-indol-5-yl)oxy]-phenyl]-3,5-dioxo-4H-1,2,4-tri-azine-6-carbonitrile], the Emax in test [1] (setting [4]), in test [2] and in test [3] (setting [6]) was > 75% throughout. Further, the half-maximal effective concentration (EC50) in test [1] (setting [5]) was 250 to 1000 nM; in test [2], 100 to 1000 nM; in test [3] (setting [7]) it was 50 to 250 nM.
As to `Cc1ccc(-c2cc(Oc3c(Cl)cc(-n4nc(N)c(=O)[nH]c4=O)cc3Cl)n[nH]c2=O)cc1C` [Compound 112], the Emax was < 50% in test [1] (setting [4]), > 75% in test [2] and < 50% in test [3] (setting [6]). Further, the half-maximal effective concentration (EC50) lay within 1000 to 10000 nM in test [1] (setting [5]), 100 to 1000 nM in test [2] and 50 to 250 nM in test [3] (setting [7]).
Regarding `Cc1cc(-n2nc(N)c(=O)[nH]c2=O)cc(C)c1Cc1ccc(O)c(-c2ccccc2)n1` [Compound 43, 6-amino-2-[4-[(5-hydroxy-6-phenylpyridin-2-yl)-methyl]-3,5-dimethylphenyl]-4H-1,2,4-triazine-3,5-dione], the Emax in test [1] (setting [4]), in test [2] and in test [3] (setting [6]) was > 75% in each case. The EC50 in test [1] (setting [5]) is < 50 nM; in test [2] it was < 100 nM.
In the case of `CC(c1ccccc1)c1cc(Oc2c(Cl)cc(-n3nc(N)c(=O)[nH]c3=O)cc2Cl)n[nH]c1=O` (single isomer, unassigned) [Compound 164, 6-Amino-2-(3,5-dichloro-4-((6-oxo-5-(1-phenylethyl)-1,6-dihydropyridazin-3-yl)oxy)phenyl)-1,2,4-triazine-3,5(2H,4H)-dione], the Emax was 50 to 75% in test [1] (setting [4]), 50 to 75% in test [2] and > 75% in test [3] (setting [6]). Besides, the half-maximal effective concentration (EC50) was 250 to 1000 nM in test [1] (setting [5]) and < 100 nM in test [2].

(Values after patent publication US12180192B2, “Modulators of THR-β and methods of use thereof” (ALIGOS THERAPEUTICS, INC., priority 2019, dated 2024).)
